Test results reported in ChEMBL document CHEMBL1201862, “PubChem BioAssay data set” (2004).
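Test compounds were applied to cells in 96-well plates for 48 hours at 5 doses. GI50: concentration for 50% inhibition of growth.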 Calls of active or inactive are those of the source. No stated cut-off is given here; in the data, active = GI50 up to about 1.1 µM and inactive = higher.

Tests used:
Assay in all cases: DTP human tumour cell line panel, 48 h
ACHN = system: ACHN
LOX IMVI = system: LOX IMVI
UACC-62 = system: UACC-62
SR = system: SR
KM12 = system: KM12
NCI-H460 = system: NCI-H460
HCT-15 = system: HCT-15
NCI-H522 = system: NCI-H522
SW-620 = system: SW-620
A498 = system: A498
IGROV-1 = system: IGROV-1
786-0 = system: 786-0
K562 = system: K562
HOP-18 = system: HOP-18
SF-268 = system: SF-268
NCI-H23 = system: NCI-H23
Malme-3M = system: Malme-3M

SMILES	GI50 (ACHN)	GI50 (LOX IMVI)	GI50 (UACC-62)	GI50 (SR)	GI50 (KM12)	GI50 (NCI-H460)	GI50 (HCT-15) [µM]	GI50 (NCI-H522)	GI50 (SW-620)	GI50 (A498)	GI50 (IGROV-1)	GI50 (786-0)	GI50 (K562)	GI50 (HOP-18)	GI50 (SF-268)	GI50 (NCI-H23)	GI50 (Malme-3M)
COC(=O)/C(=N\NC(N)=O)C(C(=O)C(=O)Nc1ccccc1C(=O)OC)c1nc2ccc(C(=O)c3ccccc3)cc2nc1O (stereo not given)	> 100 µM (inactive)	> 100 µM (inactive)	> 100 µM (inactive)	> 100 µM (inactive)	> 100 µM (inactive)	> 100 µM (inactive)	> 100	> 100 µM (inactive)	> 100 µM (inactive)	> 100 µM (inactive)	> 100 µM (inactive)	> 100 µM (inactive)	> 100 µM (inactive)	> 100 µM (inactive)	> 100 µM (inactive)	> 100 µM (inactive)	> 100 µM (inactive)
CCN(CC)CCn1c2c3ccccc3ccc2c2oc(=O)c3ccccc3c21	> 100 µM (inactive)	> 100 µM (inactive)	> 100 µM (inactive)	34.7 µM (inactive)	> 100 µM (inactive)	13.7 µM (inactive)	> 100	> 100 µM (inactive)	> 100 µM (inactive)	–	68.1 µM (inactive)	22.9 µM (inactive)	> 100 µM (inactive)	> 100 µM (inactive)	82.2 µM (inactive)	> 100 µM (inactive)	> 100 µM (inactive)
Cc1ccnc(NS(=O)(=O)c2ccc(NC3=CC(=O)C(=O)c4ccccc43)cc2)n1	> 100 µM (inactive)	> 100 µM (inactive)	> 100 µM (inactive)	> 100 µM (inactive)	> 100 µM (inactive)	> 100 µM (inactive)	> 100	> 100 µM (inactive)	> 100 µM (inactive)	> 100 µM (inactive)	> 100 µM (inactive)	> 100 µM (inactive)	> 100 µM (inactive)	> 100 µM (inactive)	> 100 µM (inactive)	> 100 µM (inactive)	> 100 µM (inactive)
CCN(CC)CCNC(=O)c1ccccc1NC(=O)C(=O)Nc1ccccc1C(=O)NCCN(CC)CC	92.3 µM (inactive)	24.9 µM (inactive)	> 100 µM (inactive)	21.8 µM (inactive)	45.6 µM (inactive)	75 µM (inactive)	49.9	39.2 µM (inactive)	18.5 µM (inactive)	> 100 µM (inactive)	> 100 µM (inactive)	20.6 µM (inactive)	16.4 µM (inactive)	> 100 µM (inactive)	> 100 µM (inactive)	> 100 µM (inactive)	21 µM (inactive)
COc1cc2ccc3c4cc(OC)c(OC)cc4c[n+](C)c3c2cc1O	> 42.2 µM (inactive)	> 73.8 µM (inactive)	> 100 µM (inactive)	–	> 100 µM (inactive)	> 26.7 µM (inactive)	> 100	8.97 µM (inactive)	> 100 µM (inactive)	> 24.4 µM (inactive)	> 100 µM (inactive)	> 100 µM (inactive)	> 83.4 µM (inactive)	> 100 µM (inactive)	0.658 µM (active)	37.1 µM (inactive)	> 100 µM (inactive)
CCOC(=O)C(C(=O)c1ccccc1)=C1NCCN1	> 100 µM (inactive)	> 100 µM (inactive)	> 100 µM (inactive)	> 100 µM (inactive)	> 100 µM (inactive)	> 100 µM (inactive)	> 100	> 100 µM (inactive)	> 100 µM (inactive)	–	> 100 µM (inactive)	> 100 µM (inactive)	> 100 µM (inactive)	4.06 µM (inactive)	> 100 µM (inactive)	> 100 µM (inactive)	> 100 µM (inactive)
COS(=O)(=O)OCCC(NC(=O)OCc1ccccc1)C(=O)OCc1ccccc1 (stereo not given)	> 100 µM (inactive)	> 100 µM (inactive)	> 100 µM (inactive)	–	> 100 µM (inactive)	> 100 µM (inactive)	> 100	> 100 µM (inactive)	> 100 µM (inactive)	> 100 µM (inactive)	> 100 µM (inactive)	> 100 µM (inactive)	> 100 µM (inactive)	> 100 µM (inactive)	> 100 µM (inactive)	> 100 µM (inactive)	> 100 µM (inactive)
C[Si](C)(C)OC1(C#N)C2C3CC4C2C(=O)C2C4C3C21 (stereo not given)	> 100 µM (inactive)	–	> 100 µM (inactive)	> 100 µM (inactive)	> 100 µM (inactive)	> 100 µM (inactive)	> 100	–	> 100 µM (inactive)	> 100 µM (inactive)	> 100 µM (inactive)	> 100 µM (inactive)	> 100 µM (inactive)	> 100 µM (inactive)	> 100 µM (inactive)	–	> 100 µM (inactive)
CCCCN(CC)C(=O)C(=O)C1C(=O)Nc2ccccc2[S+]1[O-] (stereo not given)	> 100 µM (inactive)	> 100 µM (inactive)	> 100 µM (inactive)	–	> 100 µM (inactive)	> 100 µM (inactive)	> 100	> 100 µM (inactive)	> 100 µM (inactive)	> 100 µM (inactive)	> 100 µM (inactive)	> 100 µM (inactive)	> 100 µM (inactive)	> 100 µM (inactive)	> 100 µM (inactive)	> 100 µM (inactive)	> 100 µM (inactive)
CN(C)CC/C(=N\Nc1ccccc1)c1ccccc1	–	–	> 100 µM (inactive)	47.8 µM (inactive)	1.57 µM (inactive)	–	2.88	–	–	–	29.4 µM (inactive)	23 µM (inactive)	2.48 µM (inactive)	31 µM (inactive)	8.13 µM (inactive)	23 µM (inactive)	4.78 µM (inactive)
CCN1N=CSC12C(=O)N(c1ccccc1)C(=O)N2c1ccccc1 (stereo not given)	> 100 µM (inactive)	> 100 µM (inactive)	> 100 µM (inactive)	> 100 µM (inactive)	> 100 µM (inactive)	> 100 µM (inactive)	–	> 100 µM (inactive)	> 100 µM (inactive)	> 100 µM (inactive)	> 100 µM (inactive)	> 100 µM (inactive)	> 100 µM (inactive)	> 100 µM (inactive)	> 100 µM (inactive)	> 100 µM (inactive)	> 100 µM (inactive)
CC(C)(C)C1CCC(=O)C(C(O)CC2CC(=O)N(c3ccccc3)C(=O)C2)C1 (stereo not given)	> 100 µM (inactive)	49.5 µM (inactive)	> 100 µM (inactive)	81.3 µM (inactive)	> 100 µM (inactive)	> 100 µM (inactive)	> 100	50.4 µM (inactive)	> 100 µM (inactive)	> 100 µM (inactive)	> 100 µM (inactive)	> 100 µM (inactive)	> 100 µM (inactive)	> 100 µM (inactive)	81.5 µM (inactive)	> 100 µM (inactive)	> 100 µM (inactive)
COc1ccc(S(=O)(=O)N(CC(=O)O)c2ccccc2)cc1	> 100 µM (inactive)	> 100 µM (inactive)	> 100 µM (inactive)	–	> 100 µM (inactive)	> 100 µM (inactive)	> 100	> 100 µM (inactive)	> 100 µM (inactive)	> 100 µM (inactive)	> 100 µM (inactive)	> 100 µM (inactive)	> 100 µM (inactive)	> 100 µM (inactive)	> 100 µM (inactive)	> 100 µM (inactive)	> 100 µM (inactive)
